In ChEMBL document CHEMBL1641464, “1-(Arylsulfonyl)-2,3-dihydro-1H-quinolin-4-one derivatives as 5-HT(6) serotonin receptor ligands” (Bioorg Med Chem Lett, 2011):

Legend:
[1] = target: T1, 5-hydroxytryptamine receptor 6 (Homo sapiens, UniProt P50406); assay: Displacement of [3H]LSD from human 5HT6 receptor expressed in HEK293 cells; format: cell-based
[2] = target: T1, 5-hydroxytryptamine receptor 6; assay: Binding affinity to 5HT6 receptor
[3] = target: 5-hydroxytryptamine receptor 7 (Homo sapiens, UniProt P34969); assay: Displacement of [3H]LSD from human 5HT7 receptor expressed in cells; format: cell-based
5-hydroxytryptamine receptor 7, sequence (P34969 whole entry): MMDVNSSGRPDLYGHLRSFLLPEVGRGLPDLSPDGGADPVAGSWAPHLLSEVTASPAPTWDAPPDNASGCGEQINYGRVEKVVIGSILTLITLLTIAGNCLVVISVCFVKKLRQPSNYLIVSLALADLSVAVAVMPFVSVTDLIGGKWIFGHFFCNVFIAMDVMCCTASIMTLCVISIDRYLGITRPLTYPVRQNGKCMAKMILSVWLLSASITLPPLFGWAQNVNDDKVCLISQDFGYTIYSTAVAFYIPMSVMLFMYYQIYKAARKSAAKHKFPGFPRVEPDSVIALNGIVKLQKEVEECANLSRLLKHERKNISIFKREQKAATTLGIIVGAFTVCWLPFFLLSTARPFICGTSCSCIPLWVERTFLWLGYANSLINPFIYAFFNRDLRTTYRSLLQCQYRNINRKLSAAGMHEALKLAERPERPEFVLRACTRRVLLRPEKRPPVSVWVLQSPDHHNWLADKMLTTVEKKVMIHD

[4] = target: T2, 5-hydroxytryptamine receptor 2C (Homo sapiens, UniProt P28335); assay: Displacement of [3H]mesulergine from human 5HT2C receptor expressed in cells; format: cell-based
T2 sequence (P28335 whole entry): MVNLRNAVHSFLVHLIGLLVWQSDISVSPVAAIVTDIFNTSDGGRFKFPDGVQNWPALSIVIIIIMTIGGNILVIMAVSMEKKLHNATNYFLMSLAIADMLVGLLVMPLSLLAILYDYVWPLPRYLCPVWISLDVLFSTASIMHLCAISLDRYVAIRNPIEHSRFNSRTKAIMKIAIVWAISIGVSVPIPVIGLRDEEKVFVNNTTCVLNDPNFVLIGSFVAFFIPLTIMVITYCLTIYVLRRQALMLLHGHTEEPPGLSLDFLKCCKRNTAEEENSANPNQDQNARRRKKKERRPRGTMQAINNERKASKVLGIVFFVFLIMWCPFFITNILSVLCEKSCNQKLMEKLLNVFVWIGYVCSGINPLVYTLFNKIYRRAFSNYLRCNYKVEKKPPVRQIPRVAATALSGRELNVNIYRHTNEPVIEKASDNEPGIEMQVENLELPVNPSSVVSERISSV

[5] = target: 5-hydroxytryptamine receptor 2A (Homo sapiens, UniProt P28223); assay: Displacement of [3H]ketanserin from human 5HT2A receptor expressed in cells; format: cell-based
5-hydroxytryptamine receptor 2A, sequence (P28223 whole entry): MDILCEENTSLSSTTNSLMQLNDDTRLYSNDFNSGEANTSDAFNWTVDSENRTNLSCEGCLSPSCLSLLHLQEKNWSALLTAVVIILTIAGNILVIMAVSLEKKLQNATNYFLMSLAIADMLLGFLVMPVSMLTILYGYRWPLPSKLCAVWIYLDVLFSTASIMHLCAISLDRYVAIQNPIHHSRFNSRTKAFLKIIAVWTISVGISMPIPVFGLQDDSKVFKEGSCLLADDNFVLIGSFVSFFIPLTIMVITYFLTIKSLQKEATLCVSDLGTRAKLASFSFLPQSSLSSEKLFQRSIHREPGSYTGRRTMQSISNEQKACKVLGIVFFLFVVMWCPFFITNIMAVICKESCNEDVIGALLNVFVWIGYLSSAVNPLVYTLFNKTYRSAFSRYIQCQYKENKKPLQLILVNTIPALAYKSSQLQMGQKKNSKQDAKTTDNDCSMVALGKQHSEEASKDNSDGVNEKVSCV

[6] = target: T3, 5-hydroxytryptamine receptor 1A (Homo sapiens, UniProt P08908); assay: Displacement of [3H]8-OH-DPAT from human 5HT1A receptor expressed in cells; format: cell-based
T3 sequence (P08908 whole entry): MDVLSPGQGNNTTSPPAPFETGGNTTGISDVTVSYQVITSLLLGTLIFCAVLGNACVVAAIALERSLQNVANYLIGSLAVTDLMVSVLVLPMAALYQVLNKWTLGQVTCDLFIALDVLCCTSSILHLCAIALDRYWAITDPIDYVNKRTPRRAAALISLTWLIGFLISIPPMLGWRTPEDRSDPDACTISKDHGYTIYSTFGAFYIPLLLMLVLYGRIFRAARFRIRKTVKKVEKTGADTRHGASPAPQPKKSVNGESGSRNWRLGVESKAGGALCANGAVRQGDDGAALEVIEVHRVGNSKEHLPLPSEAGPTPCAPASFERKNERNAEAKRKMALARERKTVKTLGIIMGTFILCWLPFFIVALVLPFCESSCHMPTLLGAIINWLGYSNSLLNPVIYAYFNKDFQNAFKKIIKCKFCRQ

D(2) dopamine receptor = D(2) dopamine receptor (Homo sapiens, UniProt P14416); assay: Displacement of [3H]spiperone from human dopamine D2 receptor expressed in cells; format: cell-based
D(2) dopamine receptor, sequence (P14416 whole entry): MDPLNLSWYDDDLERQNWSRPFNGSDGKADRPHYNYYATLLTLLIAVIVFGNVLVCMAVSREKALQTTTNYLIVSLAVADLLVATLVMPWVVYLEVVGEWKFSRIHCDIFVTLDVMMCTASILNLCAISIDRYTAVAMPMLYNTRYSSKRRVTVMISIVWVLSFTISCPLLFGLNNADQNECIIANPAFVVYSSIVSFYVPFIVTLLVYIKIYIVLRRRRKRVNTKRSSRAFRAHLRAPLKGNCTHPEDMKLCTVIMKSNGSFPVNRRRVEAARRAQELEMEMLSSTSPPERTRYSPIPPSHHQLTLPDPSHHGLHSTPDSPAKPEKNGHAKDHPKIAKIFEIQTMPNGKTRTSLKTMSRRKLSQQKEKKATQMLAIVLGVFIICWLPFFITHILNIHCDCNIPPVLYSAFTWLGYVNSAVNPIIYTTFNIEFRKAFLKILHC

D(3) dopamine receptor = D(3) dopamine receptor (Homo sapiens, UniProt P35462); assay: Displacement of [3H]spiperone from human dopamine D3 receptor expressed in cells; format: cell-based
D(3) dopamine receptor, sequence (P35462 whole entry): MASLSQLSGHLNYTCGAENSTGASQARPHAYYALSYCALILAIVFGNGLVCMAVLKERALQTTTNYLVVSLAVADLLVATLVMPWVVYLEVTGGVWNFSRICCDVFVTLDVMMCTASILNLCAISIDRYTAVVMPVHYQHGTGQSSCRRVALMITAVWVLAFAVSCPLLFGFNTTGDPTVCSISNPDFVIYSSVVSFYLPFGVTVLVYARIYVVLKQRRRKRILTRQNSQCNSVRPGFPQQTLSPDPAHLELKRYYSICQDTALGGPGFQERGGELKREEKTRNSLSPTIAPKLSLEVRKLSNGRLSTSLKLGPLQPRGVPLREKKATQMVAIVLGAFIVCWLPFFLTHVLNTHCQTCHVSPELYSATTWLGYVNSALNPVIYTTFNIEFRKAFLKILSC

D(4) dopamine receptor = target: T4, D(4) dopamine receptor (Homo sapiens, UniProt P21917); assay: Displacement of [3H]spiperone from human dopamine D4 receptor expressed in cells; format: cell-based
T4 sequence (P21917 whole entry): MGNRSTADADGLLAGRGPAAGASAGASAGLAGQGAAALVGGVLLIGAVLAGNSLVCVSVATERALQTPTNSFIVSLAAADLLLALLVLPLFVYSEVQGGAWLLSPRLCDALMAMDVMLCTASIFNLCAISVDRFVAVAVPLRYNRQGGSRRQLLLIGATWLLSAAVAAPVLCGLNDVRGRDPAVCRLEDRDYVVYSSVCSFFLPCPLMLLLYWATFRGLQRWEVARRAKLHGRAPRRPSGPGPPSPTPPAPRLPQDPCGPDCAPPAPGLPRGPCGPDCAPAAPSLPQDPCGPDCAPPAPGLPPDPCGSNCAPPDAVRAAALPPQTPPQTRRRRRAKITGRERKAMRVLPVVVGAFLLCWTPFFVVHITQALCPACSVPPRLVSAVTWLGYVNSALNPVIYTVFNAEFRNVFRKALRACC

[7] = target: T1, 5-hydroxytryptamine receptor 6; assay: Antagonist activity at human 5HT6 receptor expressed in HeLa cells assessed as inhibition of 5-HT-stimulated cAMP accumulation; format: functional, cell-based
[8] = Lipophilicity, log D of the compound; format: physicochemical; settings: octanol/water

T1 sequence (P50406 whole entry): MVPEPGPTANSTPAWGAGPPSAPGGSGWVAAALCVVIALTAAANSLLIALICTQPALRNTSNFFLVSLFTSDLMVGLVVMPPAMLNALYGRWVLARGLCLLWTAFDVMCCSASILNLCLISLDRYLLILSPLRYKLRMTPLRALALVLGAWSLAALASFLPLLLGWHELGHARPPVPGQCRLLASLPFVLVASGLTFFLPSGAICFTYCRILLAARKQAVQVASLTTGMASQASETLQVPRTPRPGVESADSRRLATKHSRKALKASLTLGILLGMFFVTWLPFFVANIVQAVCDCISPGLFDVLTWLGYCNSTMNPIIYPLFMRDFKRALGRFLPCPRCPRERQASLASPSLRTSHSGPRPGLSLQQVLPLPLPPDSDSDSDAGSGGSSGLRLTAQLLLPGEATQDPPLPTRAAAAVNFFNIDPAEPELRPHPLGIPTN

Compound	IC50 [1]	IC50 [3]	IC50 [4]	IC50 [5]	IC50 [6]	IC50 (D(2) dopamine receptor)	IC50 (D(3) dopamine receptor)	IC50 (D(4) dopamine receptor)	also measured
Cc1ccc(S(=O)(=O)N2CCC(=O)c3c(N4CCN(C)CC4)cccc32)cc1	0.129 µM								
CSc1nn2c(N3CCNCC3)c3c(nc2c1S(=O)(=O)c1ccccc1)CCC3									Ki [2]: 0.00251 µM
CN1CCN(c2ccc3c(c2)C(=O)CCN3S(=O)(=O)c2ccc3ccccc3c2)CC1	0.311 µM								
CN1CCN(c2cccc3c2C(=O)CCN3S(=O)(=O)c2ccc3ccccc3c2)CC1	0.061 µM	0.62 µM	0.438 µM	0.76 µM	0.333 µM	> 10 µM	2.92 µM	1.79 µM	
CC1CC(=O)c2ccc(N3CCN(C)CC3)cc2N1S(=O)(=O)c1ccc2ccccc2c1 (stereo not given)	0.028 µM	> 10 µM	0.558 µM	1.46 µM	1.6 µM	0.136 µM	1.52 µM	> 10 µM	logD [8]: 3.2
C[C@@H]1CC(=O)c2ccc(N3CCN(C)CC3)cc2N1S(=O)(=O)c1ccc2ccccc2c1	0.043 µM								
COc1cc2c(cc1N1CCN(C)CC1)N(S(=O)(=O)c1ccc3ccccc3c1)CCC2=O	0.165 µM								
Cc1c(S(=O)(=O)N2CCC(=O)c3ccc(N4CCN(C)CC4)cc32)sc2ccc(Cl)cc12	0.419 µM								
C[C@@H]1CC(=O)c2c(N3CCN(C)CC3)cccc2N1S(=O)(=O)c1ccc2ccccc2c1	0.353 µM								
CN1CCN(c2cc(Cl)cc3c2C(=O)CCN3S(=O)(=O)c2ccc3ccccc3c2)CC1	0.047 µM								
CN1CCN(c2cc(Br)cc3c2C(=O)CCN3S(=O)(=O)c2ccc3ccccc3c2)CC1	0.058 µM								
CC1CC(=O)c2c(N3CCNCC3)cccc2N1S(=O)(=O)c1ccc2ccccc2c1 (stereo not given)	0.042 µM								
COc1ccc(NS(=O)(=O)c2sc3ccc(Cl)cc3c2C)cc1N1CCN(C)CC1									logD [8]: 2.99

More lines, in order of falling IC50 [1], values ahead:

IC50 [1]	IC50 [3]	IC50 [4]	IC50 [5]	IC50 [6]	IC50 (D(2) dopamine receptor)	IC50 (D(3) dopamine receptor)	IC50 (D(4) dopamine receptor)	Compound	also measured
0.026 µM	0.143 µM	5.19 µM	0.366 µM	0.672 µM	> 10 µM	1.3 µM	3.61 µM	CN1CCN(c2ccc3c(c2)N(S(=O)(=O)c2ccc4ccccc4c2)CCC3=O)CC1	IC50 [7]: 0.188 µM
0.017 µM								C[C@H]1CC(=O)c2ccc(N3CCN(C)CC3)cc2N1S(=O)(=O)c1ccc2ccccc2c1	
0.015 µM								Cc1ccc2c(c1N1CCN(C)CC1)C(=O)CC(C)N2S(=O)(=O)c1ccc2ccccc2c1 (stereo not given)	
0.011 µM	> 10 µM	0.019 µM	0.704 µM	1.23 µM	1.78 µM	0.18 µM	> 10 µM	Cc1cc(N2CCN(C)CC2)c2c(c1)N(S(=O)(=O)c1ccc3ccccc3c1)C(C)CC2=O (stereo not given)	
0.009 µM	> 10 µM	0.004 µM	0.455 µM	0.999 µM	> 1 µM	0.623 µM	> 10 µM	CCC1CC(=O)c2c(N3CCN(C)CC3)cccc2N1S(=O)(=O)c1ccc2ccccc2c1 (stereo not given)	
0.008 µM	2.01 µM	0.03 µM	0.048 µM	1.21 µM	> 10 µM	0.482 µM	5.52 µM	CC1CC(=O)c2c(N3CCN(C)CC3)cccc2N1S(=O)(=O)c1ccc2ccccc2c1 (stereo not given)	logD [8]: 3.6
0.007 µM								C[C@H]1CC(=O)c2c(N3CCN(C)CC3)cccc2N1S(=O)(=O)c1ccc2ccccc2c1	
